Results as given in patent US20110224079A1, “SPIROHETEROCYCLIC N-OXYAMIDES AS PESTICIDES” (SYNGENTA CROP PROTECTION LLC, priority 2008, published 2011).

Tests used:
[1] = tested on: Tetranychus urticae (two-spotted spider mite); experiment: Example B4: activity against Tetranychus urticae, sprayed bean leaf discs (feeding/residual contact, preventive); conditions: foliar, 192 h, read-out: activity (egg, larval and adult mortality)
[2] = tested on: Myzus persicae (green peach aphid); experiment: Example B1: activity against Myzus persicae, sprayed sunflower leaf discs (feeding/residual contact, preventive); conditions: foliar, 144 h, read-out: activity (mortality)
[3] = tested on: Myzus persicae (green peach aphid); experiment: Example B2: activity against Myzus persicae, pea seedling roots in test solution (systemic/feeding, curative); conditions: 144 h, read-out: activity (mortality)
[4] = tested on: Myzus persicae (green peach aphid); experiment: Example B17: activity against Myzus persicae on sprayed pepper plants (feeding/residual contact); type: in vivo; conditions: 144 h, infested pepper plants sprayed, 6 days

| SMILES | mortality at 400 ppm [1] [%] | mortality at 400 ppm [2] [%] | mortality at 400 ppm [3] [%] | mortality at 200 ppm [4] [%] |
| --- | --- | --- | --- | --- |
| CCOC(=O)OC1=C(c2cc(-c3ccc(Cl)cc3)ccc2C)C(=O)N(OCOC)C12CCN(OC)CC2 [P1.22] | > 80 | > 80 | – | – |
| C#CCON1C(=O)C(c2c(C)cc(C)cc2C)=C(OC(=O)OCC)C12CCN(OC)CC2 [P1.29] | > 80 | > 80 | > 80 | – |
| CCOC(=O)OC1=C(c2c(Cl)ccc(C)c2F)C(=O)N(OC2CCCO2)C12CCN(OC)CC2 (stereo not shown) [P1.43] | > 80 | – | > 80 | – |
| CCOC(=O)OC1=C(c2c(C)cc(C)cc2C)C(=O)N(OCCCOC)C12CCN(OC)CC2 [P1.44] | > 80 | > 80 | > 80 | ≥ 80 |
| CCOC(=O)OC1=C(c2cc(C)c(C)cc2C)C(=O)N(OC2CCCO2)C12CCN(OC)CC2 (stereo not shown) [P1.54] | > 80 | > 80 | – | – |
| CCOC(=O)OC1=C(c2cc(C)c(C)cc2C)C(=O)N(OCOC)C12CCN(OC)CC2 [P1.56] | > 80 | > 80 | > 80 | ≥ 80 |
| CCOC(=O)OC1=C(c2c(C)cc(C)cc2Br)C(=O)N(OC2CCCO2)C12CCN(OC)CC2 (stereo not shown) [P1.69] | > 80 | > 80 | > 80 | ≥ 80 |
| CCOC(=O)OC1=C(c2c(C)cc(C)cc2C)C(=O)N(OC2CCOCC2)C12CCN(OC)CC2 [P1.76] | > 80 | – | > 80 | ≥ 80 |
| CCOC(=O)OC1=C(c2c(C)cc(C)cc2C)C(=O)N(OCc2ccoc2)C12CCN(OC)CC2 [P1.77] | > 80 | – | > 80 | ≥ 80 |
| CCOC(=O)OC1=C(c2c(C)cc(C)cc2C)C(=O)N(OCC2CCCC2)C12CCN(OC)CC2 [P1.83] | > 80 | – | > 80 | ≥ 80 |
| CCOC(=O)OC1=C(c2c(C)cc(C)cc2C)C(=O)N(OCC2(CC)COC2)C12CCN(OC)CC2 [P1.84] | > 80 | – | > 80 | – |
| CCOC(=O)OC1=C(c2c(C)cc(C)cc2C)C(=O)N(OC2CCN(OC)CC2)C12CCN(OC)CC2 [P1.104] | > 80 | – | > 80 | – |
| CCOC(=O)OC1=C(c2c(C)cc(C)cc2C)C(=O)N(OCC2CCC2)C12CCN(OC)CC2 [P1.106] | > 80 | > 80 | > 80 | ≥ 80 |
| CCOC(=O)OC1=C(c2c(C)cc(C)cc2C)C(=O)N(OCC2CCCOC2)C12CCN(OC)CC2 (stereo not shown) [P1.109] | > 80 | > 80 | > 80 | – |
| COCON1C(=O)C(c2cc(-c3ccc(Cl)cc3)ccc2C)=C(O)C12CCN(OC)CC2 [P2.17] | > 80 | > 80 | – | – |
| CON1CCC2(CC1)C(O)=C(c1cc(C)c(Cl)cc1C)C(=O)N2OC [P2.31] | > 80 | > 80 | – | – |
| COCCON1C(=O)C(c2c(C)cc(C)cc2Cl)=C(O)C12CCN(OC)CC2 [P2.35] | > 80 | > 80 | > 80 | – |
| CON1CCC2(CC1)C(O)=C(c1c(Cl)ccc(C)c1F)C(=O)N2OC [P2.48] | > 80 | – | > 80 | – |
| CON1CCC2(CC1)C(O)=C(c1c(F)ccc(C)c1Cl)C(=O)N2OC [P2.58] | > 80 | – | > 80 | – |
| CON1CCC2(CC1)C(O)=C(c1c(C)cc(Br)cc1C)C(=O)N2OC [P2.79] | > 80 | – | > 80 | ≥ 80 |
| CCC1(CON2C(=O)C(c3c(C)cc(C)cc3C)=C(O)C23CCN(OC)CC3)COC1 [P2.86] | > 80 | > 80 | – | ≥ 80 |
| CON1CCC2(CC1)C(O)=C(c1c(C)cc(C)cc1C)C(=O)N2OCC1CCCOC1 (stereo not shown) [P2.100] | > 80 | > 80 | > 80 | – |
